Patent US20060069132A1, “Azolecarboxamide herbicides” (priority 2004, published 2006)
Like-named read-outs stand apart in the source and are kept apart here.

Legend:
barnyardgrass = assay: Test B pre-/postemergence herbicide test; assay type: in vivo, Echinochloa crus-galli; settings: Echinochloa crus-galli; for pest or weed control at 125 g/ha: 125 g ai/ha; for pest or weed control at 500 g/ha: 500 g ai/ha
How it was run: (§1)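 Pre: seeds sown, then sprayed. Post: 1–4-leaf plants (2–18 cm) sprayed at the same time. Paddy: flooded, treated at 2-leaf stage. Formulation: non-phytotoxic solvent with surfactant. Greenhouse 13–15 days; visual 0–100 score relative to controls.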

Surinam grass = assay: Test B pre-/postemergence herbicide test; assay type: in vivo, Urochloa decumbens; settings: Urochloa decumbens; for pest or weed control at 125 g/ha: 125 g ai/ha; for pest or weed control at 500 g/ha: 500 g ai/ha
How it was run: (§2)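 Greenhouse pot assay with simultaneous preemergence (treated seed) and postemergence (2–18 cm seedlings) applications of surfactant-containing, non-phytotoxic solvent formulations. Response scored visually 13–15 days later on a 0–100 scale, 100 meaning complete control.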

cocklebur = assay: Test B pre-/postemergence herbicide test; assay type: in vivo, Xanthium strumarium; settings: Xanthium strumarium; for pest or weed control at 125 g/ha: 125 g ai/ha; for pest or weed control at 500 g/ha: 500 g ai/ha
How it was run: as §1

corn = assay: Test B pre-/postemergence herbicide test; assay type: in vivo, Zea mays; settings: Zea mays; for plant injury at 125 g/ha: 125 g ai/ha
How it was run: as §2

large crabgrass = assay: Test B pre-/postemergence herbicide test; assay type: in vivo, Digitaria sanguinalis; settings: Digitaria sanguinalis; for pest or weed control at 125 g/ha: 125 g ai/ha; for pest or weed control at 500 g/ha: 500 g ai/ha
How it was run: as §2

giant foxtail = assay: Test B pre-/postemergence herbicide test; assay type: in vivo, Setaria faberi; settings: Setaria faberi, 336 h; for pest or weed control at 125 g/ha: 125 g ai/ha; for pest or weed control at 500 g/ha: 500 g ai/ha
How it was run: as §2

lambsquarters = assay: Test B pre-/postemergence herbicide test; assay type: in vivo, Chenopodium album; settings: Chenopodium album, 336 h; for pest or weed control at 125 g/ha: 125 g ai/ha; for pest or weed control at 500 g/ha: 500 g ai/ha
How it was run: as §2

morningglory = assay: Test B pre-/postemergence herbicide test; assay type: in vivo, Ipomoea coccinea; settings: Ipomoea, 336 h, visual rating; for pest or weed control at 500 g/ha: 500 g ai/ha
How it was run: as §1

pigweed = assay: Test B pre-/postemergence herbicide test; assay type: in vivo, Amaranthus retroflexus; settings: Amaranthus retroflexus, 336 h; for pest or weed control at 125 g/ha: 125 g ai/ha; for pest or weed control at 500 g/ha: 500 g ai/ha
How it was run: as §2

velvetleaf = assay: Test B pre-/postemergence herbicide test; assay type: in vivo, Abutilon theophrasti; settings: Abutilon theophrasti, 336 h; for pest or weed control at 125 g/ha: 125 g ai/ha; for pest or weed control at 500 g/ha: 500 g ai/ha
How it was run: as §2

blackgrass = assay: Test B postemergence herbicide test; assay type: in vivo, Alopecurus myosuroides; settings: Alopecurus myosuroides, post-emergence, 336 h, postemergence, visual rating, scale 0 (no effect) to 100 (complete control), read-out: Blackgrass plant response rating
How it was run: (§3)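 Read-out: visual comparison with controls, scored 0 to 100, where 100 means complete control and 0 no effect. Formulated chemicals were applied postemergence to plants 2–18 cm tall (1- to 4-leaf), or to flooded-paddy plants at the 2-leaf stage, then held 13 to 15 days under glass.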

wheat = assay: Test B postemergence herbicide test; assay type: in vivo, Triticum aestivum; settings: Triticum aestivum, post-emergence, 336 h, postemergence, visual rating, scale 0 (no effect) to 100 (complete control), read-out: Wheat plant response rating
How it was run: (§4)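 Greenhouse test; postemergence application to plants at 1–4 leaves (2–18 cm); paddy species at 2 leaves; evaluated visually vs controls at 13–15 days; scale 0–100 (100 = complete control).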

wild oat = assay: Test B postemergence herbicide test; assay type: in vivo, Avena fatua; settings: Avena fatua, post-emergence, 336 h, postemergence, visual rating, scale 0 (no effect) to 100 (complete control), read-out: Oat, Wild plant response rating
How it was run: as §4

[1] = tested on: small flower umbrella sedge; assay: Test B flooded paddy test; assay type: in vivo, Cyperus difformis; settings: Cyperus difformis, 336 h, 1000 g ai/ha, visual rating, scale 0 to 100 (0 no effect, 100 complete control), 13 to 15 days, read-out: Sedge, Umbrella plant response rating
How it was run: as §3

[2] = post-emergence, postemergence, visual rating, scale 0 (no effect) to 100 (complete control), read-out: Barnyardgrass plant response rating
[3] = post-emergence, postemergence, visual rating, scale 0 (no effect) to 100 (complete control), read-out: Surinam Grass plant response rating
[4] = post-emergence, postemergence, visual rating, scale 0 (no effect) to 100 (complete control), read-out: Cocklebur plant response rating
[5] = post-emergence, postemergence, visual rating, scale 0 (no effect) to 100 (complete control), read-out: Crabgrass, Large plant response rating
[6] = post-emergence, postemergence, visual rating, scale 0 (no effect) to 100 (complete control), read-out: Foxtail, Giant plant response rating
[7] = post-emergence, postemergence, visual rating, scale 0 (no effect) to 100 (complete control), read-out: Lambsquarters plant response rating
[8] = post-emergence, postemergence, visual rating, scale 0 (no effect) to 100 (complete control), read-out: Pigweed plant response rating
[9] = post-emergence, postemergence, visual rating, scale 0 (no effect) to 100 (complete control), read-out: Velvetleaf plant response rating

## CCc1nn(C(C)(C)C)cc1C(=O)Nc1cc(C(=O)N(C)C)ccc1F [Compound 222, N-[5-[(dimethylamino)carbonyl]-2-fluorophenyl]-1-(1,1-dimethylethyl)-3-ethyl-1H-pyrazole-4-carboxamide]
barnyardgrass; [2]
  pest or weed control at 125 g/ha: 10%
  pest or weed control at 500 g/ha: 20%
barnyardgrass; pre-emergence, 0 = no effect, 100 = complete control, read-out: Barnyardgrass plant response rating (0 to 100 scale)
  pest or weed control at 125 g/ha: 90%
barnyardgrass; pre-emergence, visual rating, 0 = no effect, 100 = complete control, read-out: Plant response rating, Barnyardgrass
  pest or weed control at 500 g/ha: 100%
Surinam grass; [3]
  pest or weed control at 125 g/ha: 10%
  pest or weed control at 500 g/ha: 30%
Surinam grass; pre-emergence, 0 = no effect, 100 = complete control, read-out: Surinam Grass plant response rating (0 to 100 scale)
  pest or weed control at 125 g/ha: 90%
Surinam grass; pre-emergence, visual rating, 0 = no effect, 100 = complete control, read-out: Plant response rating, Surinam Grass
  pest or weed control at 500 g/ha: 100%
cocklebur; [4]
  pest or weed control at 125 g/ha: 20%
  pest or weed control at 500 g/ha: 60%
cocklebur; pre-emergence, 0 = no effect, 100 = complete control, read-out: Cocklebur plant response rating (0 to 100 scale)
  pest or weed control at 125 g/ha: 30%
cocklebur; pre-emergence, visual rating, 0 = no effect, 100 = complete control, read-out: Plant response rating, Cocklebur
  pest or weed control at 500 g/ha: 80%
corn; post-emergence, postemergence, visual rating, scale 0 (no effect) to 100 (complete control), read-out: Corn plant response rating
  plant injury at 125 g/ha: 0%
corn; post-emergence, postemergence, 500 g ai/ha, visual rating, scale 0 (no effect) to 100 (complete control), read-out: Corn plant response rating
  plant injury at 500 g/ha: 20%
corn; pre-emergence, 0 = no effect, 100 = complete control, read-out: Corn plant response rating (0 to 100 scale)
  plant injury at 125 g/ha: 60%
corn; pre-emergence, 500 g ai/ha, visual rating, 0 = no effect, 100 = complete control
  Corn plant response rating (crop injury, 0 = no effect, 100 = complete kill) at 500 g/ha: 90%
Large crabgrass; [5]
  pest or weed control at 125 g/ha: 10%
  pest or weed control at 500 g/ha: 20%
Large crabgrass; pre-emergence, 0 = no effect, 100 = complete control, read-out: Crabgrass, Large plant response rating (0 to 100 scale)
  pest or weed control at 125 g/ha: 90%
Large crabgrass; pre-emergence, visual rating, 0 = no effect, 100 = complete control, read-out: Plant response rating, Crabgrass, Large
  pest or weed control at 500 g/ha: 100%
Giant foxtail; [6]
  pest or weed control at 125 g/ha: 10%
  pest or weed control at 500 g/ha: 30%
Giant foxtail; pre-emergence, 0 = no effect, 100 = complete control, read-out: Foxtail, Giant plant response rating (0 to 100 scale)
  pest or weed control at 125 g/ha: 60%
Giant foxtail; pre-emergence, visual rating, 0 = no effect, 100 = complete control, read-out: Plant response rating, Foxtail, Giant
  pest or weed control at 500 g/ha: 90%
lambsquarters; [7]
  pest or weed control at 125 g/ha: 50%
  pest or weed control at 500 g/ha: 70%
lambsquarters; pre-emergence, 0 = no effect, 100 = complete control, read-out: Lambsquarters plant response rating (0 to 100 scale)
  pest or weed control at 125 g/ha: 100%
lambsquarters; pre-emergence, visual rating, 0 = no effect, 100 = complete control, read-out: Plant response rating, Lambsquarters
  pest or weed control at 500 g/ha: 100%
morningglory; post-emergence, postemergence, 125 g ai/ha, scale 0 (no effect) to 100 (complete control), read-out: Morningglory plant response rating
  pest or weed control at 125 g/ha: 40%
morningglory; post-emergence, postemergence, scale 0 (no effect) to 100 (complete control), read-out: Morningglory plant response rating
  pest or weed control at 500 g/ha: 80%
morningglory; pre-emergence, 0 = no effect, 100 = complete control, read-out: Plant response rating, Morningglory
  pest or weed control at 500 g/ha: 100%
pigweed; [8]
  pest or weed control at 125 g/ha: 40%
  pest or weed control at 500 g/ha: 60%
pigweed; pre-emergence, 0 = no effect, 100 = complete control, read-out: Pigweed plant response rating (0 to 100 scale)
  pest or weed control at 125 g/ha: 90%
pigweed; pre-emergence, visual rating, 0 = no effect, 100 = complete control, read-out: Plant response rating, Pigweed
  pest or weed control at 500 g/ha: 100%
velvetleaf; [9]
  pest or weed control at 125 g/ha: 50%
  pest or weed control at 500 g/ha: 60%
velvetleaf; pre-emergence, 0 = no effect, 100 = complete control, read-out: Velvetleaf plant response rating (0 to 100 scale)
  pest or weed control at 125 g/ha: 100%
velvetleaf; pre-emergence, visual rating, 0 = no effect, 100 = complete control, read-out: Plant response rating, Velvetleaf
  pest or weed control at 500 g/ha: 100%
blackgrass; 125 g ai/ha
  pest or weed control at 125 g/ha: 0%
blackgrass; 500 g ai/ha
  pest or weed control at 500 g/ha: 20%
wheat; 125 g ai/ha
  plant injury at 125 g/ha: 0%
wheat; 500 g ai/ha
  plant injury at 500 g/ha: 20%
Wild oat; 125 g ai/ha
  pest or weed control at 125 g/ha: 0%
Wild oat; 500 g ai/ha
  pest or weed control at 500 g/ha: 20%
[1]
  pest or weed control at 1000 g/ha: 70%
